Measurements taken from US6808904B2, “Herbicide-tolerant protox genes produced by DNA shuffling” (priority 1994, dated 2004).

Key:
[1] = biological target: T1, plant protox mutants (MzC-1Val, maize protox-1) in SASX38 (Arabidopsis thaliana, UniProt P55826, A220V/A252T/A259N/A262P/A292S/A82G/A83V/D204A/D323E/D487E/D93A/DEL80-81/E103P/E263P/E288N/E311D/E351S/E499D/F107Y/F178L/F250I/F483L/G171P/G277A/G306S/G313K/G344N/G441S/H340Y/I100T/I174L/I370V/I421V/I485L/I71T/I87L/INS101VE/K237R/K257S/K359R/K388Q/K457N/K465V/K78R/K92R/L137F/L159P/L310S/L325V/L345I/L360F/L436V/L86V/M122V/N105E/N149E/N241T/N258K/N316V/N355D/N459T/N85D/P266A/P418D/P458S/P84G/Q240E/Q272K/R284A/R293S/S186P/S291T/S305T/S312D/S330A/S352D/S369T/S430A/S439T/S460A/S491A/S492A/S495R/S496G/T141N/T160A/T318E/T379K/T397S/T461V/T488A/T494D/T56K/V126A/V334I/V337I/V95P); test: Bacterial cross-tolerance testing of resistant mutant plasmids in SASX38, maize protox-1 mutant; type: cell-based; details: mutant MzC-1Val vs WT plasmid in SASX38
T1 construct: expressed in transfected cells; host or cells: E. coli SASX38 (hemG mutant)
T1 sequence (P55826 other isoform, or with tags, fused parts or gaps with the stated changes): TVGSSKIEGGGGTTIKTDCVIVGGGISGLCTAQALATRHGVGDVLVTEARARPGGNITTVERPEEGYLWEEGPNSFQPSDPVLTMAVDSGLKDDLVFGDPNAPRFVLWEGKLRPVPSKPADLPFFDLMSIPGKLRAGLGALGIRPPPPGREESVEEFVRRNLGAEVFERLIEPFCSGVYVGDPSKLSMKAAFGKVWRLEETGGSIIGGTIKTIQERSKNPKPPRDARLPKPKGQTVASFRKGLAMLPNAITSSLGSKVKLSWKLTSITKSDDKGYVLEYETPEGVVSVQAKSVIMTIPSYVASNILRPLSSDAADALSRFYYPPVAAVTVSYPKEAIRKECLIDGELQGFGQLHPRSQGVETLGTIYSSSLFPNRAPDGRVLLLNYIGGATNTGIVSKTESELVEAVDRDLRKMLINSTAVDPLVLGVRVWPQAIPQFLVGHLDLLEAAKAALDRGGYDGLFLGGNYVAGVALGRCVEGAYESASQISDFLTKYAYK
Description: (§1) Resistant mutant plasmids, originally identified based on resistance against a single protox inhibitory herbicide, were tested against a spectrum of other protox inhibiting compounds. For this test, the SASX38 strain containing the wild-type plasmid is plated on a range of concentrations of each compound to determine the lethal concentration for each one. Resistant mutant plasmids in SASX38 are plated and scored for the ability to survive on a concentration of each compound at least 10 fold higher than the concentration that is lethal to the SASX38 strain containing the wild-type plasmid.

[2] = system: plant protox mutants (Arabidopsis protox-1) in SASX38; test: Bacterial cross-tolerance testing of resistant mutant plasmids in SASX38, Arabidopsis protox-1 mutants; type: cell-based; set-up: key to Cross tolerance, AraC-1Val / Cross tolerance, AraC-2Cys / Cross tolerance, AraC-1Thr / Cross tolerance, AraC-3Thr / Cross tolerance, AraC-2Ile / Cross tolerance, AraC-2Cys + AraC425Ser: + = 10× or more tolerant than WT; ++ = 100× or more tolerant than WT; − = no cross tolerance; details: mutant AraC-3Thr vs WT plasmid in SASX38
Description: as §1

[3] = biological target: T2, plant protox mutants (Arabidopsis protox-1) in SASX38 (Arabidopsis thaliana, UniProt P55826, T56K/Y426C); test: as above; type: cell-based; set-up: key to Cross tolerance, AraC-1Val / Cross tolerance, AraC-2Cys / Cross tolerance, AraC-1Thr / Cross tolerance, AraC-3Thr / Cross tolerance, AraC-2Ile / Cross tolerance, AraC-2Cys + AraC425Ser: + = 10× or more tolerant than WT; ++ = 100× or more tolerant than WT; − = no cross tolerance; details: mutant AraC-2Cys vs WT plasmid in SASX38
T2 construct: contains only 17 amino acids of the putative chloroplast transit peptide; expressed in transfected cells; host or cells: E. coli SASX38 (hemG mutant)
T2 sequence (P55826 41-537 T56K/Y426C): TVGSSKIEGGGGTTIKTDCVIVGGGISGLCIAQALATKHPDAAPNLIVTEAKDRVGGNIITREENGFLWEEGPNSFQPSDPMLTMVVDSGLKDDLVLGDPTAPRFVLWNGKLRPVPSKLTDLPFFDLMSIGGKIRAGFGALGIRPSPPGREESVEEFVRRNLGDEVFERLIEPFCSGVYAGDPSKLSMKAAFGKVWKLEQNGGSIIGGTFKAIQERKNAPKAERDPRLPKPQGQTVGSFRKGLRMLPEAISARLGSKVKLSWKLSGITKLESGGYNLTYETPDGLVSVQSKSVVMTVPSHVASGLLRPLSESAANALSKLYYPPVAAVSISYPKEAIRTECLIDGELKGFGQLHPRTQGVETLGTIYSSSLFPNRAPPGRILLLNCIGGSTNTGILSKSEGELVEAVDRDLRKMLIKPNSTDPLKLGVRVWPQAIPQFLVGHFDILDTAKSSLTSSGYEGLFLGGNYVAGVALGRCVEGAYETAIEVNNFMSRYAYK
Description: as §1

[4] = biological target: T3, plant protox mutants (Arabidopsis protox-1) in SASX38 (Arabidopsis thaliana, UniProt P55826, A220L/T56K); test: as above; type: cell-based; set-up: key to Cross tolerance, AraC-1Val / Cross tolerance, AraC-2Cys / Cross tolerance, AraC-1Thr / Cross tolerance, AraC-3Thr / Cross tolerance, AraC-2Ile / Cross tolerance, AraC-2Cys + AraC425Ser: + = 10× or more tolerant than WT; ++ = 100× or more tolerant than WT; − = no cross tolerance; details: mutant AraC-1Leu
T3 construct: contains only 17 amino acids of the putative chloroplast transit peptide; expressed in transfected cells; host or cells: E. coli SASX38 (hemG mutant)
T3 sequence (P55826 41-537 T56K/A220L): as the sequence (P55826 41-537 T56K/Y426C) above, with A180L, C386Y counted along it
Description: as §1

[5] = biological target: T4, plant protox mutants (Arabidopsis protox-1) in SASX38 (Arabidopsis thaliana, UniProt P55826, A220V/T56K); test: as above; type: cell-based; set-up: key to Cross tolerance, AraC-1Val / Cross tolerance, AraC-2Cys / Cross tolerance, AraC-1Thr / Cross tolerance, AraC-3Thr / Cross tolerance, AraC-2Ile / Cross tolerance, AraC-2Cys + AraC425Ser: + = 10× or more tolerant than WT; ++ = 100× or more tolerant than WT; − = no cross tolerance; details: mutant AraC-1Val vs WT plasmid in SASX38
T4 construct: contains only 17 amino acids of the putative chloroplast transit peptide; expressed in transfected cells; host or cells: E. coli SASX38 (hemG mutant)
T4 sequence (P55826 41-537 T56K/A220V): as the sequence (P55826 41-537 T56K/Y426C) above, with A180V, C386Y counted along it
Description: as §1

[6] = biological target: T5, plant protox mutants (Arabidopsis protox-1) in SASX38 (Arabidopsis thaliana, UniProt P55826, A220T/T56K); test: as above; type: cell-based; set-up: key to Cross tolerance, AraC-1Val / Cross tolerance, AraC-2Cys / Cross tolerance, AraC-1Thr / Cross tolerance, AraC-3Thr / Cross tolerance, AraC-2Ile / Cross tolerance, AraC-2Cys + AraC425Ser: + = 10× or more tolerant than WT; ++ = 100× or more tolerant than WT; − = no cross tolerance; details: mutant AraC-1Thr vs WT plasmid in SASX38
T5 construct: contains only 17 amino acids of the putative chloroplast transit peptide; expressed in transfected cells; host or cells: E. coli SASX38 (hemG mutant)
T5 sequence (P55826 41-537 T56K/A220T): as the sequence (P55826 41-537 T56K/Y426C) above, with A180T, C386Y counted along it
Description: as §1

[7] = biological target: T6, plant protox mutants (Arabidopsis protox-1) in SASX38 (Arabidopsis thaliana, UniProt P55826, N425S/T56K/Y426M); test: as above; type: cell-based; set-up: key to Cross tolerance, AraC-1Val / Cross tolerance, AraC-2Cys / Cross tolerance, AraC-1Thr / Cross tolerance, AraC-3Thr / Cross tolerance, AraC-2Ile / Cross tolerance, AraC-2Cys + AraC425Ser: + = 10× or more tolerant than WT; ++ = 100× or more tolerant than WT; − = no cross tolerance; details: mutant AraC-2Met + AraC425Ser
T6 construct: contains only 17 amino acids of the putative chloroplast transit peptide; expressed in transfected cells; host or cells: E. coli SASX38 (hemG mutant)
T6 sequence (P55826 41-537 T56K/N425S/Y426M): as the sequence (P55826 41-537 T56K/Y426C) above, with N385S, C386M counted along it
Description: as §1

[8] = biological target: T7, plant protox mutants (Arabidopsis protox-1) in SASX38 (Arabidopsis thaliana, UniProt P55826, N425S/T56K/Y426C); test: as above; type: cell-based; set-up: key to Cross tolerance, AraC-1Val / Cross tolerance, AraC-2Cys / Cross tolerance, AraC-1Thr / Cross tolerance, AraC-3Thr / Cross tolerance, AraC-2Ile / Cross tolerance, AraC-2Cys + AraC425Ser: + = 10× or more tolerant than WT; ++ = 100× or more tolerant than WT; − = no cross tolerance; details: mutant AraC-2Cys + AraC425Ser
T7 construct: contains only 17 amino acids of the putative chloroplast transit peptide; expressed in transfected cells; host or cells: E. coli SASX38 (hemG mutant)
T7 sequence (P55826 41-537 T56K/N425S/Y426C): as the sequence (P55826 41-537 T56K/Y426C) above, with N385S counted along it
Description: as §1

[9] = system: Arabidopsis line expressing AraC-2Ile+AraC305Leu; test: Cross tolerance in a seed germination assay, homozygous Arabidopsis line with AraC-2Ile+AraC305Leu; type: in vivo, Arabidopsis thaliana; details: AraC-2Ile+AraC305Leu line vs wt
Description: Using the procedure described above, an Arabidopsis protox-1 cDNA containing a TAC to ATG (Tyrosine to Methionine) change at nucleotides 1306-1308 in the protox-1 sequence (SEQ ID NO:1) was fused to the native protox-1 promoter fragment and transformed into Arabidopsis thaliana. […] Seed from the vacuum infiltrated plants was collected and plated on a range (10.0 nM-1.0 uM) of a protox inhibitory aryluracil herbicide of formula XVII. Multiple experiments with wild type Arabidopsis have shown that a 10.0 nM concentration of this compound is sufficient to prevent normal seedling germination. Transgenic seeds expressing the AraC-2Met altered enzyme fused to the native protox-1 promoter produced normal Arabidopsis seedlings at herbicide concentrations up to 500 nM, indicating at least 50-fold higher herbicide tolerance when compared to wild-type Arabidopsis. This promoter/altered protox enzyme fusion therefore functions as an effective selectable marker for plant transformation. Several of the plants that germinated on 100.0 nM of protox-inhibiting herbicide were transplanted to soil, grown 2-3 weeks, and tested in a spray assay with various concentrations of the protox-inhibiting herbicide. When compared to empty vector control transformants, the AraPT1Pro/AraC-2Met transgenics were >10-fold more tolerant to the herbicide spray.
Using the procedure described above, an Arabidopsis protox-1 cDNA containing both a TAC to ATC (tyrosine to isoleucine) change at nucleotides 1306-1308 and a TCA to TTA (serine to leucine) change at nucleotides 945-947 in the protox-1 sequence (SEQ ID NO:1) was fused to the native protox-1 promoter fragment and transformed into Arabidopsis thaliana.

[10] = system: maize protox-1 mutants; test: Mutant screens of maize protox-1 (pMut-3) in the E. coli system; type: cell-based; details: screen on this herbicide
Description: The pMut-3 plasmid was transformed into the mutator XL1-Red strain as described above and the mutated DNA was isolated and plated on a herbicide concentration (formula XVII) that was lethal to the unmutagenized pMut-3 maize protox gene. Herbicide tolerant colonies were isolated after two days at 37° C. and analyzed as described above. […] Three of these mutations correspond to amino acid changes previously shown to confer tolerance at the homologous position in the Arabidopsis protox-1 gene. Two of the three are pMzC-1Val and pMzC-1Thr, converting the alanine (GCT) at amino acid 164 (SEQ ID NO:6) to either valine ([…]) or to threonine (ACT). This position corresponds to the pAraC-1 mutations described above (see, Table 1B; sub-sequence 3). The third analogous change, pMzC-3Ser, converts the glycine (GGT) at amino acid 165 to Serine (AGT), corresponding to the AraC-3Ser mutation described above (see, Table 1B; sub-sequence 4).
Additional mutant screens performed as described earlier in this example, except using formulas XXIIIa and XXIIIb instead of XVII, identified three additional amino acid changes that confer tolerant protox enzymes. […]

[11] = biological target: T8, plant protox mutants (Arabidopsis protox-1) in SASX38 (Arabidopsis thaliana, UniProt P55826, N425S/T56K/Y426L); test: Bacterial cross-tolerance testing of resistant mutant plasmids in SASX38, Arabidopsis protox-1 mutants; type: cell-based; set-up: key to Cross tolerance, AraC-1Val / Cross tolerance, AraC-2Cys / Cross tolerance, AraC-1Thr / Cross tolerance, AraC-3Thr / Cross tolerance, AraC-2Ile / Cross tolerance, AraC-2Cys + AraC425Ser: + = 10× or more tolerant than WT; ++ = 100× or more tolerant than WT; − = no cross tolerance; details: mutant AraC-2Leu + AraC425Ser
T8 construct: contains only 17 amino acids of the putative chloroplast transit peptide; expressed in transfected cells; host or cells: E. coli SASX38 (hemG mutant)
T8 sequence (P55826 41-537 T56K/N425S/Y426L): as the sequence (P55826 41-537 T56K/Y426C) above, with N385S, C386L counted along it
Description: as §1

C#CC(C)Oc1cc(N2C(=O)C3=C(CCCC3)C2=O)c(F)cc1Cl (stereo not shown) [XV]
Cross tolerance, MzC-1Val [1]: + (+ = 10× or more tolerant than WT) | Cross tolerance, AraC-3Thr [2]: + (+ = 10× or more tolerant than WT) | Cross tolerance, AraC-2Cys [3]: + (+ = 10× or more tolerant than WT) | Cross tolerance, AraC-1Leu [4]: ++ (++ = 100× or more tolerant than WT) | Cross tolerance, AraC-1Val [5]: + (+ = 10× or more tolerant than WT) | Cross tolerance, AraC-1Thr [6]: + (+ = 10× or more tolerant than WT) | Cross tolerance, AraC-2Met + AraC425Ser [7]: ++ (++ = 100× or more tolerant than WT) | Cross tolerance, AraC-2Cys + AraC425Ser [8]: ++ (++ = 100× or more tolerant than WT)

CC(Cl)C(=O)Nc1c([N+](=O)[O-])cnn1-c1c(Cl)cc(C(F)F)cc1Cl (stereo not shown) [XXIa]
Tolerance [9]: + (+ ≧ 10× more tolerant than wt)

CCOc1cc(Oc2ccc(C(F)(F)F)cc2Cl)ccc1[N+](=O)[O-] [IVc]
Tolerance [9]: + (+ ≧ 10× more tolerant than wt)

CCOC(=O)C(C)OC(=O)c1cc(Oc2ccc(C(F)(F)F)cc2Cl)ccc1[N+](=O)[O-] (stereo not shown) [IVd]
Tolerance [9]: ± (± ≦ 10× more tolerant than wt)

Cn1nc(-c2c(F)cc(Cl)c(=O)n2C)c(Cl)c1OC(F)F [Formula XXIIIb]
tolerance of maize enzyme Mz88Cys ([10]; arginine 88 to cysteine): highly tolerant

COC(=O)c1cc(Oc2ccc(Cl)cc2Cl)ccc1[N+](=O)[O-] [IVb]
Tolerance [9]: + (+ ≧ 10× more tolerant than wt)

Cc1nn(-c2cc(NS(C)(=O)=O)c(Cl)cc2Cl)c(=O)n1C(F)F [X]
Tolerance [9]: + (+ ≧ 10× more tolerant than wt)

O=C([O-])c1cc(Oc2ccc(C(F)(F)F)cc2Cl)ccc1[N+](=O)[O-].[Na+] [II]
Tolerance [9]: + (+ ≧ 10× more tolerant than wt)

CS(=O)(=O)NC(=O)c1cc(Oc2ccc(C(F)(F)F)cc2Cl)ccc1[N+](=O)[O-] [III]
Tolerance [9]: + (+ ≧ 10× more tolerant than wt)

Cn1nc(-c2ncc(Cl)cc2F)c(Cl)c1OC(F)F [Formula XXIIIa]
tolerance of maize enzyme Mz347Ser453Thr ([10]; double mutant): highly tolerant

C#CCN1C(=O)COc2cc(F)c(N3C(=O)C4=C(CCCC4)C3=O)cc21 [XVI]
Cross tolerance, MzC-1Val [1]: + (+ = 10× or more tolerant than WT) | Tolerance [9]: +++ (+++ ≧ 1000× more tolerant than wt) | Cross tolerance, AraC-3Thr [2]: − | Cross tolerance, AraC-2Cys [3]: − | Cross tolerance, AraC-1Val [5]: − | Cross tolerance, AraC-2Leu + AraC425Ser [11]: ++ (++ = 100× or more tolerant than WT) | Cross tolerance, AraC-1Thr [6]: − | Cross tolerance, AraC-2Met + AraC425Ser [7]: ++ (++ = 100× or more tolerant than WT) | Cross tolerance, AraC-2Cys + AraC425Ser [8]: + (+ = 10× or more tolerant than WT)

CCOC(=O)COc1cc(-c2nn(C)c(OC(F)F)c2Cl)c(F)cc1Cl [XII]
Cross tolerance, MzC-1Val [1]: ++ (++ = 100× or more tolerant than WT) | Cross tolerance, AraC-3Thr [2]: ++ (++ = 100× or more tolerant than WT) | Cross tolerance, AraC-2Cys [3]: − | Cross tolerance, AraC-1Val [5]: + (+ = 10× or more tolerant than WT) | Cross tolerance, AraC-1Thr [6]: ++ (++ = 100× or more tolerant than WT)
